Experimental data as given in paper PMC11904993, “Humanized Candida and NanoBiT Assays Expedite Discovery of Bdf1 Bromodomain Inhibitors With Antifungal Potential” (Advanced Science, 2025).
Several values for one entry are separate records, joined by “and”; a condition that tells them apart may be missing. Equal values may be shown once. Read-outs that look alike come from different tables or passages of the source.

Key:
[1] = molecular target: T1, Bdf1‐SmBiT/H2A.Z‐LgBiT pair (Saccharomyces cerevisiae, UniProt P35817); assay: NanoBiT assay; assay type: cell-based, S. cerevisiae; conditions: read-out: Normalized nanoBiT signal
T1 construct: expressed in transfected cells; host or cells: S. cerevisiae (H2A.Z-LgBiT strain)
T1 sequence (P35817 whole entry): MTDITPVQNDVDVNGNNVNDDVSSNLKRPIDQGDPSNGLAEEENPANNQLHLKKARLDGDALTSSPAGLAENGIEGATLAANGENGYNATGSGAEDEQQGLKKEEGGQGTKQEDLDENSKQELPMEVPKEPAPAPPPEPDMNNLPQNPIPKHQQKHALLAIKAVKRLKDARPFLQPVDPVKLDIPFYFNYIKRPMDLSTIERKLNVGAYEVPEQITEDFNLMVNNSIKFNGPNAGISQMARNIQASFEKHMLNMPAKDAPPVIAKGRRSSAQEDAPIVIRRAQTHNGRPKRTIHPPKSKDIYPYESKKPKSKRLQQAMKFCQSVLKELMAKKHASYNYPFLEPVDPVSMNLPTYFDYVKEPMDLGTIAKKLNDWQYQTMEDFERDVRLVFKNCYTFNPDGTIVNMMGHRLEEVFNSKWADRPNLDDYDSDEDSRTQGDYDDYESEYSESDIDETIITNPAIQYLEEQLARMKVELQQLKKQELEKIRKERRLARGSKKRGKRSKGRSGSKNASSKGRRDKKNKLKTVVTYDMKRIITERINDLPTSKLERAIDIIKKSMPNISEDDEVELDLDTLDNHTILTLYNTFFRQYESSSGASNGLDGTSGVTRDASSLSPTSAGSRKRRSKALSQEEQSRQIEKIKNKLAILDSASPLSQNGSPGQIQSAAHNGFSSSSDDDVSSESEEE
Method: (§1) Yeast strains were distributed in 96‐well microplates containing SC(MSG)‐U medium (SC‐U medium with 0.1% monosodium glutamate instead of ammonium sulfate as a nitrogen source) and grown at 30 °C. 40 µL of exponentially growing cells were transferred in white 96‐well half‐area microplates (ProxiPlate Plus, Greiner Bio‐One) previously filled with 40 µL per well of SC(MSG) containing 100 µM furimazine. The microplates were then incubated for 10 min in the dark before the luminescence signals were recorded using a microplate reader (Ensight, PerkinElmer). Luminescence measurements were performed for 1 s per well at a distance of 0.1 mm between the plate and the detector. The luminescence values were normalized with the optical density (OD600) of the corresponding cultures. For NanoBiT assays with BET inhibitors, yeast cultures were grown overnight at 30 °C in SC(MSG) medium in the presence of serial dilutions of 24c and I‐BET726. Overnight cultures were diluted 5 fold in SC(MSG) and incubated for 1 h before luminescence was recorded as previously indicated. Luminescence values for each condition were normalized using the average of the luminescence recorded for the Bdf1/Swc4 and Bmh1/Bmh2 controls.

Bmh1/Bmh2 = assay: NanoBiT assay, control pair; assay type: cell-based, S. cerevisiae; set-up: Normalized nanoBiT signal: unit of the concentration uncertain
Method: as §1

[2] = tested on: C. glabrata strains expressing WT and mutant Bdf1; assay: Growth inhibition in liquid media, C. glabrata lab strains; conditions: for %Growth: WT BDF1-flag
Method: (§2) Growth on Liquid Media with C. glabrata Lab Strains: Cells were grown at 30 °C in SC+M+C‐U medium (SC medium with 5 mM methionine, 0.25 mM cysteine, without uracil) to an OD600 of 0.5–0.8. […] Plates were incubated at 30 °C and OD600 was measured using a Multiskan FC Microplate Photometer (Thermo Fisher).

[3] = tested on: C. glabrata expressing humanized Bdf1 (Brd4 BDs); assay: Growth inhibition in liquid media, humanized C. glabrata strains; conditions: for EC50: Nakaseomyces glabratus
Method: as §2

`CC(=O)N1c2ccc(-c3ccc(C(=O)O)cc3)cc2C(Nc2ccc(Cl)cc2)CC1C` (stereo not shown) [I-BET726] was tested, and the remaining activity at 48.83 µM [1] was 96%, the “Normalized nanoBiT signal” value (Bmh1/Bmh2) was 108% and 107% and 96% and 97% and the “Normalized nanoBiT signal” value (Bmh1/Bmh2; Bmh1-LgBiT, Bmh2-SmBiT, 0.02441 (unit uncertain), Fig 4C) was 104% and 103% and 105% and 97%. For the same compound, the “Normalized nanoBiT signal” value (Bmh1/Bmh2; Bmh1-LgBiT, Bmh2-SmBiT, 0.09766 (unit uncertain), Fig 4C) was 105% and 106% and 103% and 100%, the “Normalized nanoBiT signal” value (Bmh1/Bmh2; Bmh1-LgBiT, Bmh2-SmBiT, 0.19531 (unit uncertain), Fig 4C) was 105% and 94% and 98% and the “Normalized nanoBiT signal” value (Bmh1/Bmh2; Bmh1-LgBiT, Bmh2-SmBiT, 0.39063 (unit uncertain), Fig 4C) was 110% and 103% and 98% and 96%. The “Normalized nanoBiT signal” value (Bmh1/Bmh2; Bmh1-LgBiT, Bmh2-SmBiT, 0.78125 (unit uncertain), Fig 4C) was 109% and 110% and 93% and 102%, the “Normalized nanoBiT signal” value (Bmh1/Bmh2; Bmh1-LgBiT, Bmh2-SmBiT, 1.56250 (unit uncertain), Fig 4C) was 115% and 111% and 95% and 99% and the “Normalized nanoBiT signal” value (Bmh1/Bmh2; Bmh1-LgBiT, Bmh2-SmBiT, 3.12500 (unit uncertain), Fig 4C) was 112% and 118% and 104% and 101%. For the same compound, the “inhibition of NanoBiT signal, Bmh1/Bmh2” value (Bmh1/Bmh2; unrelated control pair) was “not observed”, the “%Growth” value ([2]; Fig 3E, 50 µM, Exp 1-3) was 24% and 29% and 27% and the “%Growth” value ([2]; Fig 3F, 0.0412 µM) was 86.79% and 92.92% and 93.05%. For the same compound, the “%Growth” value ([2]; Fig 3F, 0.1235 µM) was 78.65% and 90.9% and 90.48%, the “%Growth” value ([2]; Fig 3F, 0.3704 µM) was 70.78% and 76.63% and 84.08% and the “%Growth” value ([2]; Fig 3F, 1.1111 µM) was 65.69% and 73.22% and 70.81%. For the same compound, the “%Growth” value ([2]; Fig 3F, 3.3333 µM) was 37.23% and 49.84% and 57.55%, the “%Growth” value ([2]; Fig 3F, 10 µM) was 20.2% and 22.05% and 23.51% and the EC50 ([2]; Nakaseomyces glabratus, read-out: EC50 (μM) growth inhibition, Fig 3F, strain BDF1-FLAG (WT Bdf1)) was 3.24 ± 0.75 µM. It also gave an EC50 ([2]; Nakaseomyces glabratus, read-out: EC50 (μM) growth inhibition, strain bdf1-Y166F (active BD: BD2)) of 1.98 ± 0.36 µM, an EC50 ([2]; Nakaseomyces glabratus, read-out: EC50 (μM) growth inhibition, strain bdf1-Y343F (active BD: BD1)) of roughly 25 µM and an EC50 ([2]; Nakaseomyces glabratus, read-out: EC50 (μM) growth inhibition, strain bdf1-bd1Δ (active BD: BD2)) of 1.17 ± 0.1 µM. For the same compound, the EC50 ([2]; Nakaseomyces glabratus, read-out: EC50 (μM) growth inhibition, strain bdf1-bd2Δ (active BD: BD1)) was 13.7 ± 4.9 µM, the “Growth (%)” value ([2]; WT BDF1, 20 µM, Fig 5B) was 34% and the EC50 ([2]; read-out: EC50 (μM) growth inhibition, Fig 3F, strain BDF1-FLAG (WT Bdf1)) was 3 µM and 3.2 µM. The “%Growth” value ([3]; Fig 3E, 50 µM, BDF1-hBD1-flag, Exp 1-3) was 2.33% and 1.84% and 1.76%, the “%Growth” value ([3]; Fig 3E, 50 µM, BDF1-hBD2-flag, Exp 1-3) was 3.8% and 4.25% and 4% and the “%Growth” value ([3]; Fig 3E, 50 µM, humanized BDF1-flag, Exp 1-3) was 0.38% and 2.64% and 0.389%. The “%Growth” value ([3]; Fig 3F, BDF1-hBD1-flag, 0.0137 µM) was 90.66% and 83.58% and 76.59%, the “%Growth” value ([3]; Fig 3F, BDF1-hBD1-flag, 0.0412 µM) was 77.41% and 78.96% and 63.08% and the “%Growth” value ([3]; Fig 3F, BDF1-hBD1-flag, 0.1235 µM) was 61.07% and 68.69% and 57.31%. For the same compound, the “%Growth” value ([3]; Fig 3F, BDF1-hBD1-flag, 0.3704 µM) was 41.42% and 40.29% and 42%, the “%Growth” value ([3]; Fig 3F, BDF1-hBD1-flag, 1.1111 µM) was 16.57% and 19.25% and 16.52% and the “%Growth” value ([3]; Fig 3F, BDF1-hBD1-flag, 3.3333 µM) was 5.27% and 7.44% and 4.82%. For the same compound, the “%Growth” value ([3]; Fig 3F, BDF1-hBD2-flag, 0.0137 µM) was 47.68% and 58.64% and 43.37%, the “%Growth” value ([3]; Fig 3F, BDF1-hBD2-flag, 0.0412 µM) was 32.5% and 27.54% and 41.03% and the “%Growth” value ([3]; Fig 3F, BDF1-hBD2-flag, 0.1235 µM) was 16.07% and 15.16% and 20.65%. For the same compound, the “%Growth” value ([3]; Fig 3F, BDF1-hBD2-flag, 0.3704 µM) was 9.64% and 8.03% and 12.17%, the “%Growth” value ([3]; Fig 3F, BDF1-hBD2-flag, 1.1111 µM) was 6.25% and 6.02% and 7.12% and the “%Growth” value ([3]; Fig 3F, BDF1-hBD2-flag, 3.3333 µM) was 4.46% and 5.24% and 6.4%. For the same compound, the “%Growth” value ([3]; Fig 3F, humanized BDF1-flag, 0.0137 µM) was 42.92% and 50.6% and 44.95%, the “%Growth” value ([3]; Fig 3F, humanized BDF1-flag, 0.0412 µM) was 25.63% and 22.37% and 34.68% and the “%Growth” value ([3]; Fig 3F, humanized BDF1-flag, 0.1235 µM) was 13.13% and 10.59% and 17.61%. The “%Growth” value ([3]; Fig 3F, humanized BDF1-flag, 0.3704 µM) was 5.63% and 5.85% and 8.26%, the “%Growth” value ([3]; Fig 3F, humanized BDF1-flag, 1.1111 µM) was 2.92% and 3.13% and 4.77% and the “%Growth” value ([3]; Fig 3F, humanized BDF1-flag, 3.3333 µM) was 1.04% and 1.36% and 2.75%. The EC50 ([3]; read-out: EC50 (μM) growth inhibition, Fig 3F, strain bdf1-hBD1-FLAG) was 0.25 ± 0.03 µM, the EC50 ([3]; read-out: EC50 (μM) growth inhibition, Fig 3F, strain bdf1-hBD2-FLAG) was 0.019 ± 0.002 µM and the EC50 ([3]; read-out: EC50 (μM), C. glabrata (hum), Fig 5C, both BDs humanized) was 0.043 ± 0.024 µM. For the same compound, the EC50 ([3]; read-out: EC50 growth inhibition, strain expressing humanized Bdf1) was 0.014 µM.
